The values that follow come from patent publication US10912301B2, “Herbicide combinations comprising L-glufosinate and indaziflam” (BASF SE, priority 2015, dated 2021).

Like-named read-outs stand apart in the source and are kept apart here.

For one test, the system named is Poa annua (POAAN). The experiment in a line: Greenhouse pot trial, single post-emergence treatment, herbicidal activity rating. Format: in vivo. The following applies: BBCH growth stage 11-12, 12 g/ha indaziflam. The protocol: (§1) In separate pots, biological trials were conducted in the greenhouse under identical conditions (apart from the treatment with the different products P1, P2 and P3 mentioned above). Each pot contained the same soil and the same amount of seeds of each of the following weeds (two monocotyledonous and two dicotyledonous harmful plant species (weed species)):
(§2) The Tables 1 to 6 reflect the observations after certain periods of time, indicated in days (referred to as DAA=days after application) after start of treatment with/application of the respective product P1, P2 or P3 mentioned above, each in the amounts indicated below.
(§3) Indaziflam was used in an amount of 12 g/ha.

A further test deals with Stellaria media (STEME). Described as above. Format: in vivo. The following applies: BBCH growth stage 11-12, 12 g/ha indaziflam. The protocol:
as §1, §2, §3

Test [1] deals with Amaranthus retroflexus (AMARE). Described as above. The following applies: BBCH growth stage 11-12, 12 g/ha indaziflam. Format: in vivo. The protocol:
as §1, §2, §3

For test [2], the system named is Lolium multiflorum (LOLMU). The description is as above. Format: in vivo. Particulars: BBCH growth stage 11-12, 12 g/ha indaziflam. The protocol: as §1, §2, §3
Test [3] relates to monocotyledonous and dicotyledonous harmful plant species. Briefly: Post-emergence efficacy of indaziflam alone. Format: in vivo. The following applies: product containing 4 g/L of indaziflam, dose rate 12 g/ha.
Test [4] shares this test system. The following applies: stated as known; cited from earlier work.

Take `Cc1ccc2c(c1)[C@H](Nc1nc(N)nc([C@@H](C)F)n1)[C@@H](C)C2` (mixture of isomers) [indaziflam, N^2-[(1R,2S)-2,3-dihydro-2,6-dimethyl-1H-inden-1-yl]-6-[(1RS)-1-fluoroethyl]-1,3,5-triazine-2,4-diamine]: the “Ratings of herbicidal activity: Regrowth” value in the test on Poa annua (POAAN) is on record as “no herbicidal effect”; in the test with Stellaria media (STEME) it was “no herbicidal effect”; in test [1], “very weak herbicidal effect starting on day 7 after treatment”; in test [2], “no herbicidal effect”. Moreover, the figures for the post-emergence efficacy result in test [3] and in test [4] were “only very limited post-emergence efficacy” and “insufficient post-emergence efficacy”, respectively.
